# Experiment: Radiochemical purity by iTLC over time after radiolabelling
# Format: physicochemical
# Procedure: Table 1 to Table 5 show the results of various radiolabelling experiments on radiochemical purity and the chelation yield. The radiolabelling experiments in the tables are carried out as described in: • Example 1 for when the gallium-68 source is GE Liquid target generator and EZAG GalliaPharm generator; • Example 2 for when the gallium-68 source is IRE Galli Eo generator; • Example 3 for when the gallium-68 source is GE solid target generator;
# However, the experiments were carried out with the amount of ascorbic acid as indicated in the Tables 1 to 5, and the activity as indicated in the Tables 1 to 5. Radiochemical purities were measured at various times (T0, T1, T4, T6) after the radiolabelled experiments have been conducted.
# The kits of Example 1, Example 2 or Example 3, with amounts of ascorbic acid as set out in Table 7 were used in the experiments for the ascorbic acid bracketing matrix. Three strengths of [^68Ga]Ga-PSMA-11 will be tested, i.e. 50 mCi/ml, 7 mCi/ml and 1 mCi/ml. Radiochemical purity was determined at different time points (TO, T1, T4 or T6), as set out in Table 7.
# [1] = 15 mg ascorbic acid, 10.0-18.4 mCi, 0.95-1.77 mCi/mL, 1 × EZAG GalliaPharm, 2 × IRE Galli Eo, average of 3, T1 (1 h)
# [2] = 15 mg ascorbic acid, 10.0-18.4 mCi, 0.95-1.77 mCi/mL, 1 × EZAG GalliaPharm, 2 × IRE Galli Eo, n=3, T0
# [3] = 15 mg ascorbic acid, 10.0-18.4 mCi, 0.95-1.77 mCi/mL, 1 × EZAG GalliaPharm, 2 × IRE Galli Eo, n=3, T1 (1 h)
# [4] = 15 mg ascorbic acid, 23.7-47.6 mCi, 2.26-4.53 mCi/mL, 1 × EZAG GalliaPharm, 2 × IRE Galli Eo, average of 3, T0
# [5] = 15 mg ascorbic acid, 23.7-47.6 mCi, 2.26-4.53 mCi/mL, 1 × EZAG GalliaPharm, 2 × IRE Galli Eo, average of 3, T4 (4 h)
# [6] = 15 mg ascorbic acid, 23.7-47.6 mCi, 2.26-4.53 mCi/mL, 1 × EZAG GalliaPharm, 2 × IRE Galli Eo, n=3, T0
# [7] = 15 mg ascorbic acid, 23.7-47.6 mCi, 2.26-4.53 mCi/mL, 1 × EZAG GalliaPharm, 2 × IRE Galli Eo, n=3, T4 (4 h)
# [8] = 20 mg ascorbic acid, 514-544 mCi, 48.3-51.9 mCi/mL, GE Solid Target, average of 2, T0
# [9] = 20 mg ascorbic acid, 514-544 mCi, 48.3-51.9 mCi/mL, GE Solid Target, average of 2, T6 (6 h)
# [10] = 20 mg ascorbic acid, 514-544 mCi, 48.3-51.9 mCi/mL, GE Solid Target, n=2, T0
# [11] = 20 mg ascorbic acid, 514-544 mCi, 48.3-51.9 mCi/mL, GE Solid Target, n=2, T6 (6 h)
# [12] = 25 mg ascorbic acid, 19.5-20.0 mCi, 1.85-1.90 mCi/mL, EZAG GalliaPharm, average of 2, T0
# [13] = 25 mg ascorbic acid, 19.5-20.0 mCi, 1.85-1.90 mCi/mL, EZAG GalliaPharm, average of 2, T1 (1 h)
# [14] = 25 mg ascorbic acid, 19.5-20.0 mCi, 1.85-1.90 mCi/mL, EZAG GalliaPharm, n=2, T0
# [15] = 25 mg ascorbic acid, 19.5-20.0 mCi, 1.85-1.90 mCi/mL, EZAG GalliaPharm, n=2, T1 (1 h)
# [16] = 25 mg ascorbic acid, 23.3-24 mCi, 2.22-2.28 mCi/mL, IRE Galli Eo, average of 2, T0
# [17] = 25 mg ascorbic acid, 23.3-24 mCi, 2.22-2.28 mCi/mL, IRE Galli Eo, average of 2, T4 (4 h)
# [18] = 25 mg ascorbic acid, 23.3-24 mCi, 2.22-2.28 mCi/mL, IRE Galli Eo, n=2, T0
# [19] = 25 mg ascorbic acid, 23.3-24 mCi, 2.22-2.28 mCi/mL, IRE Galli Eo, n=2, T4 (4 h)
# [20] = 25 mg ascorbic acid, 46.0-46.1 mCi, 4.38-4.39 mCi/mL, EZAG GalliaPharm, average of 2, T0
compound,measurement,setting,value
"O=C([O-])CN(CCN(CC(=O)[O-])Cc1cc(CCC(=O)NCCCCCC(=O)NCCCC[C@H](NC(=O)N[C@@H](CCC(=O)O)C(=O)O)C(=O)O)ccc1[O-])Cc1cc(CCC(=O)O)ccc1[O-].[68Ga+3].[OH3+] [[^68Ga]PSMA-11, gallium-68 radiolabelled Glu-urea-Lys-HBED-CC (gozetotide or PSMA-11)]",Radiochemical Purity (iTLC) Ga-68 PSMA-11 (%),"15 mg ascorbic acid, 10.0-18.4 mCi, 0.95-1.77 mCi/mL, 1 × EZAG GalliaPharm, 2 × IRE Galli Eo, average of 3, T0",100%
same,Radiochemical Purity (iTLC) Free and Colloidal Ga-68 (%),[1],0%
same,Radiochemical Purity (iTLC) Ga-68 PSMA-11 (%),[1],100%
same,Radiochemical Purity (iTLC) Free and Colloidal Ga-68 (%),[2],C (C = conforms to specifications)
same,Radiochemical Purity (iTLC) Ga-68 PSMA-11 (%),[2],C (C = conforms to specifications)
same,Radiochemical Purity (iTLC) Free and Colloidal Ga-68 (%),[3],C (C = conforms to specifications)
same,Radiochemical Purity (iTLC) Ga-68 PSMA-11 (%),[3],C (C = conforms to specifications)
same,Radiochemical Purity (iTLC) Free and Colloidal Ga-68 (%),[4],0%
same,Radiochemical Purity (iTLC) Ga-68 PSMA-11 (%),[4],100%
same,Radiochemical Purity (iTLC) Free and Colloidal Ga-68 (%),[5],0%
same,Radiochemical Purity (iTLC) Ga-68 PSMA-11 (%),[5],100%
same,Radiochemical Purity (iTLC) Free and Colloidal Ga-68 (%),[6],C (C = conforms to specifications)
same,Radiochemical Purity (iTLC) Ga-68 PSMA-11 (%),[6],C (C = conforms to specifications)
same,Radiochemical Purity (iTLC) Free and Colloidal Ga-68 (%),[7],C (C = conforms to specifications)
same,Radiochemical Purity (iTLC) Ga-68 PSMA-11 (%),[7],C (C = conforms to specifications)
same,Radiochemical Purity (iTLC) Free and Colloidal Ga-68 (%),[8],3%
same,Radiochemical Purity (iTLC) Ga-68 PSMA-11 (%),[8],97%
same,Radiochemical Purity (iTLC) Free and Colloidal Ga-68 (%),[9],2%
same,Radiochemical Purity (iTLC) Ga-68 PSMA-11 (%),[9],98%
same,Radiochemical Purity (iTLC) Free and Colloidal Ga-68 (%),[10],C (C = conforms to specifications)
same,Radiochemical Purity (iTLC) Ga-68 PSMA-11 (%),[10],C (C = conforms to specifications)
same,Radiochemical Purity (iTLC) Free and Colloidal Ga-68 (%),[11],C (C = conforms to specifications)
same,Radiochemical Purity (iTLC) Ga-68 PSMA-11 (%),[11],C (C = conforms to specifications)
same,Radiochemical Purity (iTLC) Free and Colloidal Ga-68 (%),[12],2%
same,Radiochemical Purity (iTLC) Ga-68 PSMA-11 (%),[12],98%
same,Radiochemical Purity (iTLC) Free and Colloidal Ga-68 (%),[13],0%
same,Radiochemical Purity (iTLC) Ga-68 PSMA-11 (%),[13],100%
same,Radiochemical Purity (iTLC) Free and Colloidal Ga-68 (%),[14],C (C = all results conform to specifications)
same,Radiochemical Purity (iTLC) Ga-68 PSMA-11 (%),[14],C (C = all results conform to specifications)
same,Radiochemical Purity (iTLC) Free and Colloidal Ga-68 (%),[15],C (C = all results conform to specifications)
same,Radiochemical Purity (iTLC) Ga-68 PSMA-11 (%),[15],C (C = all results conform to specifications)
same,Radiochemical Purity (iTLC) Free and Colloidal Ga-68 (%),[16],1%
same,Radiochemical Purity (iTLC) Ga-68 PSMA-11 (%),[16],99%
same,Radiochemical Purity (iTLC) Free and Colloidal Ga-68 (%),[17],0%
same,Radiochemical Purity (iTLC) Ga-68 PSMA-11 (%),[17],100%
same,Radiochemical Purity (iTLC) Free and Colloidal Ga-68 (%),[18],C (C = all results conform to specifications)
same,Radiochemical Purity (iTLC) Ga-68 PSMA-11 (%),[18],C (C = all results conform to specifications)
same,Radiochemical Purity (iTLC) Free and Colloidal Ga-68 (%),[19],C (C = all results conform to specifications)
same,Radiochemical Purity (iTLC) Ga-68 PSMA-11 (%),[19],C (C = all results conform to specifications)
same,Radiochemical Purity (iTLC) Free and Colloidal Ga-68 (%),[20],0%
same,Radiochemical Purity (iTLC) Ga-68 PSMA-11 (%),[20],100%

# From patent US20250360235A1, “RADI[…] AND METHOD FOR RADIOLABELLING” (Telix Innovations SA, priority 2024, published 2025)
